Experiments:
Type in all cases: in vivo
[1] = Masking of the bitterness of a mixture of bitter amino acids, panel of experts (n=13), randomized duo-test with nose clip; conditions: 100 ppm sample; for Reduction of bitterness in % compared to the mixture of amino acids: negative = less bitter, positive = more bitter; for Bitter taste amino acid mixture + sample: scale 0 [not bitter] to 10 [extremely bitter], n=13
Procedure: The masking effect of hydroxybenzoic acid amides (compounds 1-4) to be preferably used according to the invention as well as a comparative substance (compound 5) on a mixture of bitter amino acids (2 g/l L-Isoleucine; 3.5 g/l L-Leucine; 1 g/l L-Phenylalanine; 0.7 g/l L-Tryptophan in water) was evaluated by an panel of experts (n=13) (Evaluation 0 [not bitter] up to 10 [extremely bitter]). The tasting was performed with a nose clip, to exclude olfactory influences, and in a randomized duo-test. The bitterness of the mixture of amino acids was evaluated by the panel by 4.98±0,31 on a scale from 0 to 10.

[2] = Masking of the bitter taste of peptides, panel of experts (n=15), randomized duo-tests: Arg-Pro; conditions: for Bitter taste peptide solution + 100 ppm compound: Arg-Pro 0.1% (w/v) in water, scale 0 (not bitter) to 10 (extremely bitter); for Reduction of bitterness (%): Arg-Pro 0.1% (w/v), 100 ppm compound, negative = less bitter
Procedure: (§1) The masking effect of 2,4-Dihydroxy-N-[(4-hydroxy-3-methoxy-phenyl)methyl]benzamide (compound 1) and N-[(4-hydroxy-3-methoxy-phenyl)methyl]-2,4-dimethoxy-benzamide (compound 5) on the bitter taste of peptides was examined in a panel of experts (n=15) in randomized duo-tests. Therefore, solutions of bitter peptides in water with or without the addition of the exemplary substances were tasted and the perceived bitter taste was evaluated on a scale from 0 (not bitter) to 10 (extremely bitter).

[3] = Masking of the bitter taste of peptides, panel of experts (n=15), randomized duo-tests: Trp-Trp-Trp; conditions: for Bitter taste peptide solution + 100 ppm compound: Trp-Trp-Trp 0.01% (w/v) in water, scale 0 to 10; for Reduction of bitterness (%): Trp-Trp-Trp 0.01% (w/v), 100 ppm compound, negative = less bitter
Procedure: as §1

[4] = Masking of the bitter taste of peptides, panel of experts (n=15), randomized duo-tests: Tyr-Pro-Phe-Pro; conditions: for Bitter taste peptide solution + 100 ppm compound: Tyr-Pro-Phe-Pro 0.1% (w/v) in water, scale 0 to 10; for Reduction of bitterness (%): Tyr-Pro-Phe-Pro 0.1% (w/v), 100 ppm compound, negative = less bitter
Procedure: as §1

[5] = Masking of the bitter taste of peptides, panel of experts (n=15), randomized duo-tests: Leu-Trp (comparative example); conditions: for Reduction of bitterness (%): Leu-Trp 0.2% (w/v) (comparative peptide), 100 ppm compound, negative = less bitter; for Bitter taste peptide solution + 100 ppm compound: Leu-Trp 0.2% (w/v) in water (comparative peptide), scale 0 to 10
Procedure: as §1

[6] = Masking of the bitter taste of peptides, panel of experts (n=15), randomized duo-tests: Glu-Leu-Leu (comparative example); conditions: for Reduction of bitterness (%): Glu-Leu-Leu 0.2% (w/v) (comparative peptide), 100 ppm compound, negative = less bitter; for Bitter taste peptide solution + 100 ppm compound: Glu-Leu-Leu 0.2% (w/v) in water (comparative peptide), scale 0 to 10
Procedure: as §1

[7] = Masking of the bitter taste of whey protein hydrolysate solution, panel of experts (n=8), randomized duo-tests; conditions: base 3% (w/v) whey protein hydrolysate in water; 100 ppm compound 1; aroma 1.6% (w/v) in the combination
Procedure: The bitter masking effect of 2,4-dihydroxy-N-[(4-hydroxy-3-methoxy-phenyl)methyl]benzamide (compound 1) on the bitter taste of whey protein hydrolysate was tested in a panel of experts [n=8] for a solution of 3% (w/v) of a commercially available whey protein hydrolysate (BioZate 3 of the company Davisco) in randomized duo-tests. The perceived bitter taste was evaluated on a scale from 0 [not bitter] to 10 [extremely bitter]. For comparison, a combination of compound 1 with a usual bitter masking aroma was tested, to examine possible additive effects.

[8] = Masking of the bitter taste of peptides; conditions: 100 ppm; compound 1: plurality of peptides, except Leu-Trp and Glu-Leu-Leu
Procedure: as §1

Compound: COc1cc(CNC(=O)c2ccc(O)cc2O)ccc1O [compound 1, 2,4-Dihydroxy-N-[(4-hydroxy-3-methoxy-phenyl)methyl]benzamide]
- Reduction of bitterness in % compared to the mixture of amino acids [1]: −25.9%
- Bitter taste amino acid mixture + sample [1]: 3.90
- Bitter taste peptide solution + 100 ppm compound [2]: 1.47
- Reduction of bitterness (%) [2]: −20.9%
- Bitter taste peptide solution + 100 ppm compound [3]: 5.35
- Reduction of bitterness (%) [3]: −17.4%
- Bitter taste peptide solution + 100 ppm compound [4]: 3.43
- Reduction of bitterness (%) [4]: −23.3%
- Reduction of bitterness (%) [5]: −4%
- Bitter taste peptide solution + 100 ppm compound [5]: 6.5
- Reduction of bitterness (%) [6]: −3.77%
- Bitter taste peptide solution + 100 ppm compound [6]: 5.1
- Reduction of the bitter taste [%] [7]: −24.5%
- Effect on the bitterness of the peptides (in words) [8]: clear reduction of the bitterness

Compound: COc1cc(Cn2c(=O)oc3cc(O)cc(O)c3c2=O)ccc1O [compound 2, 5,7-Dihydroxy-3-[(4-hydroxy-3-methoxy-phenyl)methyl]-1,3-benzoxazin-2,4-dione]
- Reduction of bitterness in % compared to the mixture of amino acids [1]: −30.3%
- Bitter taste amino acid mixture + sample [1]: 3.20

Compound: COc1cc(CNC(=O)c2ccc(O)cc2)ccc1O [compound 3, 4-Hydroxy-N-[(4-hydroxy-3-methoxy-phenyl)methyl]benzamide]
- Reduction of bitterness in % compared to the mixture of amino acids [1]: −14.1%
- Bitter taste amino acid mixture + sample [1]: 4.11

Compound: COc1cc(CNC(=O)c2ccccc2O)ccc1O [compound 4, 2-Hydroxy-N-[(4-hydroxy-3-methoxy-phenyl)methyl]benzamide]
- Reduction of bitterness in % compared to the mixture of amino acids [1]: −7.7%
- Bitter taste amino acid mixture + sample [1]: 4.74

Compound: COc1ccc(C(=O)NCc2ccc(O)c(OC)c2)c(OC)c1 [compound 5, N-[(4-hydroxy-3-methoxy-phenyl)methyl]-2,4-dimethoxy-benzamide, reference compound]
- Reduction of bitterness in % compared to the mixture of amino acids [1]: 22.8%
- Bitter taste amino acid mixture + sample [1]: 6.86
- Bitter taste peptide solution + 100 ppm compound [2]: 2.05
- Reduction of bitterness (%) [2]: 10.81%
- Bitter taste peptide solution + 100 ppm compound [3]: 6.40
- Reduction of bitterness (%) [3]: −1.08%
- Bitter taste peptide solution + 100 ppm compound [4]: 4.68
- Reduction of bitterness (%) [4]: 4.46%
- Reduction of bitterness (%) [5]: 4.41%
- Bitter taste peptide solution + 100 ppm compound [5]: 7.1
- Reduction of bitterness (%) [6]: 5.66%
- Bitter taste peptide solution + 100 ppm compound [6]: 5.6
- Effect on the bitterness of the peptides (in words) [8]: not able to achieve a reduction of the bitterness

Source: US10736829B2, “Use of certain hydroxybenzoic acid amides for masking unpleasant taste impressions” (SYMRISE AG, priority 2015, dated 2020)
